{"source": "patent US20020062490A1", "about": "“Hypertension” (priority 2000, published 2002)", "key": {"[1]": {"assay": "Blood pressure responses in anesthetized mice to infused GPCR agonists", "type": "in vivo", "details": "for increase over resting MAP: 1 μg/kg angiotensin II; for MAP response (increase over resting MAP): 8 μg/kg phenylephrine; for decrease from resting MAP: 0.156 μg/kg isoproterenol, n=3; for change from resting diastolic pressure: 0.625 μg/kg isoproterenol; for diastolic pressure response: 10 μg/kg isoproterenol", "procedure": "In order to begin to understand the mechanisms involved in the GRK2 overexpression-induced hypertension and the receptors that are desensitized, blood pressure responses were measured in anesthetized mice following angiotensin II (FIG. 5A), phenylephrine (FIG. 5B) or isoproterenol (FIG. 5C) infusion. The response to 1 μg/kg angiotensin II was attenuated (NLC 91+12%, n=9 versus BK25 43+8% increase over resting MAP, n=4, p=0.02), as were responses to 8 μg/kg phenylephrine (NLC: 44±11% versus 4±5%, n=4, p=0.04). MAP responses to isoproterenol were not different in GRK2 overexpressing mice as compared with NLC. However, isoproterenol has a significant effect on heart rate that could affect MAP. Therefore, diastolic pressure was examined as a rough estimate of peripheral resistance.\nIn vivo Physiology: Mice were anesthetized with ketamine (100 mg/kg body weight) and xylazine (5 mg/kg body weight). Subsequently, a flexible plastic catheter (flame-stretched PE50 tubing) was placed in the left carotid artery to monitor arterial pressure and tunneled subcutaneously to exit at the nape of the neck. The catheter was then flushed with 100 μL of heparinized phosphate-buffered saline (PBS) (30 U/mL), sealed and attached to the skin between the scapulae. Twenty-four hours later, blood pressure measurements are recorded from awake, unrestrained mice. Intra-arterial blood pressure is recorded continuously through the carotid catheter using PowerLab (ADInstruments, Mountainview, Calif.) data acquisition and software. In both anesthetized and awake animals, systolic (SBP) and diastolic blood pressure (DBP), and heart rate were measured. Mean arterial pressure (MAP) was calculated as DBP+⅓(SBP- DBP). The recordings from animals in each experimental group were then integrated and averaged. To analyze acute blood pressure responses, a second catheter was placed in the jugular vein to infuse agonists. Immediately following an equilibration period, mice received a bolus injection at 2-5 min intervals."}, "[2]": {"system": "thoracic aorta ring segments", "assay": "Responses of isolated thoracic aorta ring segments to GPCR agonists", "set-up": "species or system mice", "procedure": "In Vitro Physiology: Aorta were dissected and cut into 2.5 mm rings. Rings were then placed in a 37° C. chamber (Kent Scientific) containing Krebs-Hensileit buffer and bubbled with 95% O2/5% CO2. Two stainless steel wires were placed through each ring and one wire is attached to a fixed end. The other was attached to a force transducer and contraction is measured by force displacement (PowerLab, ADInstruments, Mountainview, Calif.). Responses to various agonists were tested in the presence and absence (mechanically scraped using a thin wire or chemical inhibition of nitric oxide synthase using 100 μM L-NAME) of endothelial cells. For isoproterenol responses, pretension was established at 60% of the maximum phenylephrine response (3×10^−7M PE).\nPharmacology: To analyze the effect of VSM GRK2 overexpression independent of autonomic influences on the peripheral vasculature, responses of isolated thoracic aorta ring segments to the GPCR agonists isoproterenol (βAR) and phenylephrine ([…]) were examined. Endothelial cell presence was first verified by relaxation responses to 10^−5M acetylcholine. […] Accordingly, pretension for the βAR studies was established using 3×10^−7M phenylephrine, which corresponded to 60% maximum phenylephrine stimulation in both NLC and transgenic mice. […]"}, "aortic VSM cells [3]": {"system": "aortic VSM cells", "assay": "Intracellular cAMP accumulation (adenylyl cyclase activity) in cultured aortic VSM cells", "type": "cell-based", "details": "aortic VSM cells from SM22α-GRK2-25 mice, compared with NLC cells", "procedure": "Cell Culture: Primary cultures of VSM from thoracic aortas and vena cava were obtained and cultured as described (Chen et al, J. Biol. Chem. 270:30980-30988 (1995)). To determine adenylyl cyclase activity, cultured cells were grown to four days post-confluence. Cells were then labeled overnight in 3.0 μCi/mL [^3H]adenine (DuPont/NEN) in medium 199 and then preincubated in medium 199 with 10 mM Hepes and 1 mM 3-isobutyl-1-methylxanthine (IBMX) for 30 min. Cells were then stimulated with the appropriate concentration of isoproterenol or […] for 15 minutes. Following incubation, cAMP was determined by anion exchange chromatography and a percent incorporation of the total [^3H] uptake was calculated. To determine if enhanced expression and activity of GRK2 seen in cultured VSM cells from SM22α-GRK2 mice could exert an effect on signaling, intracellular cAMP accumulation in cultured aortic VSM cells in response to the βAR agonist isoproterenol was examined."}, "aortic VSM cells [4]": {"system": "aortic VSM cells", "assay": "MAPK (ERK1/2) activity after βAR stimulation in aorta VSM cells", "type": "cell-based, mice", "details": "10^−5M isoproterenol, 5 minutes", "procedure": "MAPK Activity: To study MAPK activity, cells were stimulated with isoproterenol at the described concentration for 5 minutes. Cells were then harvested and homogenized in ice-cold RIPA buffer with 1 mM sodium orthovanadate (Iaccarino et al, Proc. Natl. Acad. Sci. USA 96:3945-3950 (1999b)). MAPK activity as assessed by phosphorylated protein levels was performed by activity assays as previously described (Iaccarino et al, Proc. Natl. Acad. Sci. USA 96:3945-3950 (1999b)). Protein immunoblotting for the activated phosphorylated forms of ERK1/2 and JNK1/3 (New England Biolabs) was normalized to total MAPK levels using antibodies specific to total ERK1/2 and JNK1 (Santa Cruz Biotechnologies, California).\nAs a second assay to measure βAR mediated signaling in VSM cells from GRK2 transgenic and NLC mice, we investigated MAPK activity after βAR stimulation. Two MAPKs were studied, extracellular-regulated kinase (ERK1/2 or p42/p44 MAPKs) and c-jun kinase (JNK). FIG. 7C is a representative autoradiograph of the ability of immunoprecipitated ERK1/2 or JNK1/3 to phosphorylates their in vitro substrates myelin basic protein (MBP) or GST-c-jun, respectively, after the addition of different doses of isoproterenol to aortic VSM cells from NLC and SM22α-GRK2-25 mice. […] This was also the case for the activity of JNK1/3 and its ability to phosphorylate GST-c-jun (FIG. 7C). […]"}}, "note": "Several values for one entry are separate records, joined by “and”; a condition that tells them apart may be missing. Equal values may be shown once."}
{"compound": "angiotensin II [GPCR agonist infused to raise blood pressure]", "values": [{"measurement": "increase over resting MAP", "setting": "[1]; anesthetized BK25 (GRK2 overexpressing) mice, n=4", "result": "43+8% and 43±8%"}, {"measurement": "increase over resting MAP", "setting": "[1]; anesthetized NLC (WT) mice, n=9", "result": "91+12% and 91±12%"}]}
{"compound": "CNC[C@H](O)c1cccc(O)c1", "note": "[phenylephrine]", "values": [{"measurement": "MAP response (increase over resting MAP)", "setting": "[1]; anesthetized GRK2 overexpressing (BK25) mice, n=4", "result": "4±5", "unit": "%"}, {"measurement": "MAP response (increase over resting MAP)", "setting": "[1]; anesthetized NLC (WT) mice", "result": "44±11", "unit": "%"}, {"measurement": "fraction of maximum phenylephrine stimulation (pretension)", "setting": "[2]; 3×10^−7M phenylephrine, aorta rings of both NLC and transgenic mice", "result": 60, "unit": "%"}, {"measurement": "constriction of aorta rings, NLC compared with SM22α-GRK2-25 mice", "setting": "[2]; cumulative dose response", "result": "similar"}]}
{"compound": "CC(C)NCC(O)c1ccc(O)c(O)c1", "note": "(stereo not shown) [isoproterenol]", "values": [{"measurement": "decrease from resting MAP", "setting": "[1]; anesthetized NLC mice", "result": "−30±2.8", "unit": "mmHg"}, {"measurement": "decrease from resting MAP", "setting": "[1]; anesthetized SM22α-GRK2 mice", "result": "−4.7±3.2", "unit": "mmHg"}, {"measurement": "change from resting diastolic pressure", "setting": "[1]; anesthetized BK25 mice, n=4", "result": "−11±3", "unit": "%"}, {"measurement": "change from resting diastolic pressure", "setting": "[1]; anesthetized NLC mice, n=9", "result": "−39±8", "unit": "%"}, {"measurement": "diastolic pressure response", "setting": "[1]; anesthetized BK25 mice, n=4", "result": "−11±3", "unit": "%"}, {"measurement": "diastolic pressure response", "setting": "[1]; anesthetized WT mice, n=9", "result": "−39±8", "unit": "%"}, {"measurement": "MAP responses, GRK2 overexpressing mice compared with NLC", "setting": "[1]; anesthetized mice, cumulative doses of isoproterenol", "result": "not different"}, {"measurement": "cAMP generation", "setting": "aortic VSM cells [3]", "result": "minimal increase"}, {"measurement": "induction of phosphorylation status of ERK1/2", "setting": "aortic VSM cells [4]; NLC VSM cells", "result": "robust increase"}, {"measurement": "induction of phosphorylation status of ERK1/2 (activation)", "setting": "aortic VSM cells [4]; SM22α-GRK2-25 VSM cells", "result": "virtually abolished"}]}
